Laboratory results taken from patent US6780853B1, “Neuroactive steroids of the androstane and pregnane series” (priority 1995, dated 2004).
Marks after values point to notes of the source that are not given here.

Experiments:
punished responding = assay: Geller-Seifter conflict test; assay type: in vivo, Sprague-Dawley rats
Text: This animal model of human anxiety utilizes a conditioned state of conflict in rats to ascertain the anxiolytic properties of drugs. Rats are conditioned to bar press for positive reinforcement under two schedules of behavior (Geller and Seifter, Psychopharmacologia 1:482-492 (1960)). The first includes bar pressing under a […] schedule without punishment. The second component is a fixed ratio schedule with each bar press resulting in a positive reinforcement and a punishment The punished component produces a state of conflict within the animal. […] An anxiolytic response would increase the punished responding without affecting the unpunished responding.
Male albino Sprague-Dawley rats (Charles River Labs, Wilmington, Mass.) weighing 250-300 g were used for conflict experiments and were kept on a restricted diet of Purina Lab Chow food pellets with water available at all times to maintain body weight at 85% of their free-feeding young adult levels. Rats were housed individually under a 12-hour light dark cycle with lights on from 0700-1900.
The ant-anxiety (punishment-lessening) and response depressant effects of compounds of the present invention were measured in rats by the conflict test of Geller and Seifter. In this 63-min test hungry rats perform a lever-press response to obtain a sweetened milk reward. The reinforcement schedule consists of punishment and nonpunishment components, alternating approximately every 15 min. Rats were trained in test chambers (Coulbourn instruments) with a lever mounted in one wall, a small dipper that delivered the 0.1-mL milk reward (1 part Eagle condensed milk:2 parts water), and a metal grid floor through which the foot-shock punishment was administered. A DEC PDP 11/73 minicomputer running SKED (State Systems) was used for programming and recording.
Rats initially learned to respond on a continuous reinforcement schedule and progressed rapidly to 30-sec, 1-min, and 2-min variable interval (VI) schedules. On the continuous reinforcement schedule, rats received milk reward following every lever press; on the VI schedules, milk rewards were available at infrequent and variable intervals, eventually at an average of once every 2 min. Four 3-min “conflict” periods were then introduced on the unpunished VI baseline; the first started after 3 min of VI performance and the others were alternated between 12-min periods of VI responding. During conflict periods, which were signalled by the presentation of a light and a tone, the continuous reinforcement schedule was again in force and each lever press delivered both a milk reward and a brief […] foot-shock punishment. […]

[1] = test system: metrazol induced convulsions; assay: Antimetrazol activity in mice; assay type: in vivo; conditions: 10 mg/kg, 50% hpbcd; for PTZ % Protected: i.p., 10 min; for % Protected: IP, 10 min before metrazol 85 mg/kg
Method in brief: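 Mice dosed with test compounds at various doses 10 minutes before metrazol (85 mg/kg) injection. Each animal observed for 30 minutes, recording time to onset of myoclonus (forelimb clonic activity).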

[2] = test system: maximal electroshock tonic seizure; assay: Maximal electroshock test; assay type: in vivo, mice; conditions: 20 mg/kg, i.p., 10 min, 50% hpbcd
Text: The anticonvulsant tests are similar to that described above.

[3] = test system: time spent on the open-arms; assay: Elevated plus-maze test; assay type: in vivo, N.I.H. Swiss-Webster mice; conditions: IP, 50% hpbcd, 10 mg/kg
[4] = target: GABA receptor complex (GRC); assay: [35S]TBPS binding in rat cerebral cortex P2 homogenate; conditions: for IC50: concentration to inhibit 50% of control [35S]TBPS binding, 2 nM [35S]TBPS; for IMAX (maximum inhibition): maximum inhibition of [35S]TBPS binding
Method in brief: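 Male Sprague-Dawley rat cortical P2 homogenate (0.5 mg protein) incubated with 2 nM [35S]TBPS in 50 mM Na/K phosphate pH 7.4, 200 mM NaCl, with GABA plus (+)bicuculline, 90 min at 25 °C. Filter-bound radioactivity counted; non-specific binding with […]; IC50 and maximal inhibition by nonlinear regression.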

[5] = data from Swinyard & Woodhead 1982; cited from earlier work
loss-of-righting reflex = assay: Anesthetic activity, loss-of-righting reflex; assay type: in vivo, mice; conditions: iv, 10 mg/kg
Description: The compounds of and used in the invention can also be used for anesthetic indications at high doses. However, the preferred route of administration to induce anesthesia is intravenous (i.v.) administration. In animals, a drug's anesthetic properties is measured by the drug's ability to produce a loss-of-righting reflex. The loss-of-righting reflex is defined as the inability of an animal to right itself within 30 seconds when placed on its back. Mice were administered drug i.v. in the lateral tail vein. Following administration, mice were placed on their backs and observed for loss-of-righting reflex.

| SMILES | PTZ % Protected [1] | % Protected [1] [%] | MES % Protected [2] | Plus-Maze (% Control), time spent on the open-arms [3] [% Control] | IC50 [4] [nM] | IMAX (maximum inhibition) [4] [%] | also measured |
| --- | --- | --- | --- | --- | --- | --- | --- |
| CCOC[C@@]1(O)CC[C@@]2(C)[C@@H](CC[C@@H]3[C@@H]2CC[C@]2(C)[C@@H](C(C)=O)CC[C@@H]32)C1 [3α-Hydroxy-3β-ethoxymethyl-5α-pregnan-20-one] | – | – | – | – | – | – | Geller/Seifter (% or control) (punished responding; IP, 50% hpbcd, 40 mg/kg): 3743 % or control |
| COC1CCC2C3CCC4CC(O)(C#Cc5ccc(C(C)=O)cc5)CCC4C3CCC12C (stereo not drawn) [3β-(4′-Acetylphenylethynyl)-3α-hydroxy-17β-methoxy-19-nor-5β-androstane] | 12.5^c % | 31 | 25^b % | 156 | 8 | 96 | melting point: 148 to 150 °C |
| CCCC(CCC)C(=O)O [Valproate] | – | – | – | – | – | – | ED50 RR [5]: 514 mg/kg |
| C#C[C@@]1(O)CC[C@@]2(C)[C@H](CC[C@@H]3[C@@H]2CC[C@]2(C)[C@@H](OC)CC[C@@H]32)C1 [3β-ethynyl-3α-hydroxy-17β-methoxy-5β-androstane] | 50^c % | 50 | 31.2^b % | 123 | 49 | 101 | Loss-of-Righting Reflex (%) (loss-of-righting reflex; 50% hpbcd): 50% |
| CC(=O)C1CCC2C3CCC4CC(O)(C(F)(F)F)CCC4(C)C3C(N(C)C)CC12C (stereo not drawn) [11α-N,N-Dimethylamino-3α-hydroxy-3β-trifluoromethyl-5β-pregnan-20-one] | – | – | – | – | – | – | Geller/Seifter (% or control) (punished responding; IP, citrate, 20 mg/kg): 145 % or control |
| COC[C@@]1(O)CC[C@@]2(C)[C@@H](CC[C@@H]3[C@@H]2CC[C@]2(C)[C@@H](C(C)=O)CC[C@@H]32)C1 [3α-Hydroxy-3β-methoxymethyl-5α-pregnan-20-one] | – | – | – | – | – | – | Geller/Seifter (% or control) (punished responding; IP, 50% hpbcd, 10 mg/kg): 958 % or control |
| COCC1(O)CCC2(C)C(CCC3C2CCC2(C)C(OC)CCC32)C1 (stereo not drawn) [3α-Hydroxy-17β-methoxy-3β-methoxymethyl-5α-androstane] | 87.5^c % | 87.5 | 18.7^b % | 130 | 64 | 100 | Loss-of-Righting Reflex (%) (loss-of-righting reflex; 10% hpbcd): 50% |
| CCC1(c2ccccc2)C(=O)NC(=O)NC1=O [Phenobarbital] | – | – | – | – | – | – | ED50 RR [5]: 69 mg/kg |
| COCC1(O)CCC2(C)C(CCC3C2CCC2(C)C(C(=O)CSS(=O)(=O)[O-])CCC32)C1.[Na+] (stereo not drawn) [Sodium S-(3α-hydroxy-3β-methoxymethyl-5α-pregnan-20-on-21-yl)thiosulfate] | – | – | – | – | – | – | Geller/Seifter (% or control) (punished responding; PO, water, 32 mg/kg): 4487.5 % or control |
| CO[C@H]1CC[C@H]2[C@@H]3CC[C@@H]4C[C@H](O)CC[C@]4(C)[C@H]3CC[C@]12C [3α-Hydroxy-17β-methoxy-5β-androstane] | 87.5^c % | – | 87.5^b % | 115 | 62 | 106 | melting point: 151 to 156 °C |
